Consider 25 molecules from US20240166617A1, “PHOSPHOINOSITIDE 3 KINASE BETA INHIBITORS AND COMPOSITIONS AND METHODS THEREOF” (Geode Therapeutics Inc., priority 2021, published 2024).

Read-outs that look alike come from different tables or passages of the source. Where only a bound is given, the exact number is not on record here.

This test relates to phosphorylation of AKT in HCC70 cells. Briefly: Cellular assay: phosphorylation of AKT in HCC70 cells (western blotting). The format is cell-based. To be noted: Homo sapiens, HCC70, 1 h. Here is the method: Cellular activity of PI3Kβ inhibitors was determined by quantifying the phosphorylation of AKT in HCC70 cells. AKT phosphorylated at Ser473 and Thr308 were measured using western blotting and specific primary antibodies from Cell Signaling (CST), Danvers, MA. On day 1, HCC70 cells (ATCC #CRL-2315) were seeded into Falcon 12-well cell Culture Plate (Corning #353043) at 100,000 cells per well, in 1 ml complete culture medium (RPMI-1640, GIBCO #11875093) containing 10% heat inactivated FBS (GIBCO #10438026), 1% Pen-Strep (GIBCO #15140122) and incubated at 37° AC, 5% CO2 overnight. On day 2, compound (500 nM) or DMSO (0.1%, Sigma Aldrich #8418) was added and cells were further incubated for 60 min at 37° AC, 5% CO2 in a total volume of 1 ml fresh medium.
At the end of the cell treatment period, media were removed by aspiration and adherent cells were lysed in 100 uL RIPA buffer (Sigma Aldrich #R0278). Equal volume (15 uL) of proteins was resolved by SDS-PAGE and transferred to PVDF (Millipore #IPFL00010) membrane for immunoblot analysis. Primary antibodies to the following proteins were used for immunoblotting: phosphor-AKT (Ser473) (CST #4060), phosphor-AKT (Thr308) (CST #2965), total AKT (CST #9272). Secondary goat anti-rabbit IgG fluorophore conjugated antibody (Invitrogen #A21109) was used to visualize the indicated proteins on an Odyssey CLx imaging system (Li-Cor). Quantification of band intensities was performed using Odyssey 3.0 software. Inhibition of Akt activity was calculated by band intensities using the formula: […]
Index was evaluated by % of AI. Data represent Index+(20˜60%), ++(60%˜80%), +++(80%˜90%), and ++++>90%.

Setting [1] is: HCC70 cells, compound 500 nM, 60 min, inhibition of Akt activity from band intensities, read-out: Index of AI (HCC70) p-AKT Thr 308.
Where [2] appears, read: HCC70 cells, compound 500 nM, 60 min, inhibition of Akt activity from band intensities, read-out: Index of AI (HCC70) p-AKT ser 473.

On to `C[C@H]1Cc2c(F)cc(F)cc2N1Cc1cc(C(=O)N(C)C)cc2c(=O)cc(N3CCOCC3)oc12` (single isomer, unassigned) [Compound 64], for which the inhibition at 0.5 µM was above 90% under setting [1] and above 90% under setting [2].

For `C[C@@H]1Cc2c(F)cc(F)cc2N1Cc1cc(C(=O)N(C)C)cc2c(=O)cc(N3CCOCC3)oc12` (single isomer, unassigned) [Compound 65], the inhibition at 0.5 µM under setting [1] was 20 to 60% and the inhibition at 0.5 µM under setting [2] lay in the range of 20 to 60%.

In the case of `C[C@H]1Cc2c(F)cccc2N1Cc1cc(C(=O)N(C)C)cc2c(=O)cc(N3CCOCC3)oc12` (single isomer, unassigned) [Compound 102], the inhibition at 0.5 µM under setting [1] is above 90% and the inhibition at 0.5 µM under setting [2] was above 90%.

On to `O=c1cc(N2CCOCC2)oc2c(CNc3cc(F)cc(F)c3)cc(N3CCOCC3)cc12` [Compound 1, 8-(((3,5-difluorophenyl)amino)methyl)-2,6-dimorpholino-4H-chromen-4-one], for which the inhibition at 0.5 µM by setting is: under setting [1], 60 to 80%; under setting [2], 60 to 80%.

In the case of `CN(C)c1cc(CNc2cc(F)cc(F)c2)c2oc(N3CCOCC3)cc(=O)c2c1` [Compound 2, 8-(((3,5-difluorophenyl)amino)methyl)-6-(dimethylamino)-2-morpholino-4H-chromen-4-one], the inhibition at 0.5 µM reads like this: under setting [1], 60 to 80%; under setting [2], 60 to 80%.

With `N#Cc1cc(CNc2cc(F)cc(F)c2)c2oc(N3CCOCC3)cc(=O)c2c1` [Compound 3, 8-(((3,5-difluorophenyl)amino)methyl)-2-morpholino-4-oxo-4H-chromene-6-carbonitrile], the inhibition at 0.5 µM is, setting by setting: under setting [1], 60 to 80%; under setting [2], 60 to 80%.

Consider `CCOc1cc(CNc2cc(F)cc(F)c2)c2oc(N3CCOCC3)cc(=O)c2c1` [Compound 4, 8-(((3,5-difluorophenyl)amino)methyl)-6-ethoxy-2-morpholino-4H-chromen-4-one], for which the inhibition at 0.5 µM fell in the range of 60 to 80% under setting [1] and 60 to 80% under setting [2].

As to `C#Cc1cc(CNc2cc(F)cc(F)c2)c2oc(N3CCOCC3)cc(=O)c2c1` [Compound 5, 8-(((3,5-difluorophenyl)amino)methyl)-6-ethynyl-2-morpholino-4H-chromen-4-one], the inhibition at 0.5 µM runs as follows: (read-out: Index of AI (HCC70) p-AKT Thr 308) 60 to 80%; (read-out: Index of AI (HCC70) p-AKT ser 473) 60 to 80%.

Consider `O=c1cc(N2CCOCC2)oc2c(CNc3cc(F)cc(F)c3)cc(C3CC3)cc12` [Compound 6, 6-cyclopropyl-8-(((3,5-difluorophenyl)amino)methyl)-2-morpholino-4H-chromen-4-one], for which the inhibition at 0.5 µM reads like this: under setting [1], 60 to 80%; under setting [2], 60 to 80%.

With `CN(C)C(=O)Nc1cc(CNc2cc(F)cc(F)c2)c2oc(N3CCOCC3)cc(=O)c2c1` [Compound 7, 3-(8-(((3,5-difluorophenyl)amino)methyl)-2-morpholino-4-oxo-4H-chromen-6-yl)-1,1-dimethylurea], the inhibition at 0.5 µM reads like this: under setting [1], 60 to 80%; under setting [2], 60 to 80%.

Consider `CC(=O)Nc1cc(CNc2cc(F)cc(F)c2)c2oc(N3CCOCC3)cc(=O)c2c1` [Compound 8, N-(8-(((3,5-difluorophenyl)amino)methyl)-2-morpholino-4-oxo-4H-chromen-6-yl)acetamide], for which the inhibition at 0.5 µM is, setting by setting: under setting [1], 60 to 80%; under setting [2], 60 to 80%.

Turning to `CC(=O)N(C)c1cc(C(C)Nc2cc(F)cc(F)c2)c2oc(N3CCOCC3)cc(=O)c2c1` (centres unmarked) [Compound 9, N-(8-(1-((3,5-difluorophenyl)amino)ethyl)-2-morpholino-4-oxo-4H-chromen-6-yl)-N-methylacetamide], the inhibition at 0.5 µM fell in the range of 80 to 90% under setting [1] and 80 to 90% under setting [2].

Take `CCC(=O)Nc1cc(C(C)Nc2cc(F)cc(F)c2)c2oc(N3CCOCC3)cc(=O)c2c1` (centres unmarked) [Compound 11, N-(8-(1-((3,5-difluorophenyl)amino)ethyl)-2-morpholino-4-oxo-4H-chromen-6-yl)propionamide]: the inhibition at 0.5 µM by setting is: under setting [1], above 90%; under setting [2], above 90%.

`CC(Nc1cc(F)cc(F)c1)c1cc(N=C(N)N)cc2c(=O)cc(N3CCOCC3)oc12` (centres unmarked) [Compound 14, 2-(8-(1-((3,5-difluorophenyl)amino)ethyl)-2-morpholino-4-oxo-4H-chromen-6-yl)guanidine]: the inhibition at 0.5 µM was 20 to 60% under setting [1] and 20 to 60% under setting [2].

Take `CC(Nc1cc(F)cc(F)c1)c1cc(S(=O)(=O)N2CC(N)C2)cc2c(=O)cc(N3CCOCC3)oc12` (centres unmarked) [Compound 17, 6-((3-aminoazetidin-1-yl)sulfonyl)-8-(1-((3,5-difluorophenyl)amino)ethyl)-2-morpholino-4H-chromen-4-one]: the inhibition at 0.5 µM under setting [1] was in the range of 60 to 80% and the inhibition at 0.5 µM under setting [2] lay within 60 to 80%.

As for `CC(Nc1cc(F)cc(F)c1)c1cc(NC2=NCCN2)cc2c(=O)cc(N3CCOCC3)oc12` (centres unmarked) [Compound 20, 8-(1-((3,5-difluorophenyl)amino)ethyl)-6-((4,5-dihydro-1H-imidazol-2-yl)amino)-2-morpholino-4H-chromen-4-one], the inhibition at 0.5 µM fell in the range of 60 to 80% under setting [1] and 60 to 80% under setting [2].

`CC(Nc1cc(F)cc(F)c1)c1cc(NC(=O)CC#N)cc2c(=O)cc(N3CCOCC3)oc12` (centres unmarked) [Compound 22, 2-cyano-N-(8-(1-((3,5-difluorophenyl)amino)ethyl)-2-morpholino-4-oxo-4H-chromen-6-yl)acetamide]: the inhibition at 0.5 µM is above 90% under setting [1] and above 90% under setting [2].

`C/C(O)=C(\C#N)C(=O)Nc1cc(C(C)Nc2cc(F)cc(F)c2)c2oc(N3CCOCC3)cc(=O)c2c1` (centres unmarked) [Compound 23, (Z)-2-cyano-N-(8-(1-((3,5-difluorophenyl)amino)ethyl)-2-morpholino-4-oxo-4H-chromen-6-yl)-3-hydroxybut-2-enamide]: the inhibition at 0.5 µM reads like this: under setting [1], 60 to 80%; under setting [2], 60 to 80%.

Turning to `CC(Nc1cc(F)cc(F)c1)c1cc(CC(=O)N(C)C)cc2c(=O)cc(N3CCOCC3)oc12` (centres unmarked) [Compound 24, 2-(8-(1-((3,5-difluorophenyl)amino)ethyl)-2-morpholino-4-oxo-4H-chromen-6-yl)-N,N-dimethylacetamide], the inhibition at 0.5 µM runs as follows: under setting [1], above 90%; under setting [2], above 90%.

As to `CC(Nc1cc(F)cc(F)c1)c1cc(C(=O)N2CC3(C2)CS(=O)(=O)C3)cc2c(=O)cc(N3CCOCC3)oc12` (centres unmarked) [Compound 28, 8-(1-((3,5-difluorophenyl)amino)ethyl)-6-(2,2-dioxido-2-thia-6-azaspiro[3.3]heptane-6-carbonyl)-2-morpholino-4H-chromen-4-one], the inhibition at 0.5 µM under setting [1] fell in the range of 60 to 80% and the inhibition at 0.5 µM under setting [2] was in the range of 60 to 80%.

Turning to `CCC(Nc1cc(F)cc(F)c1)c1cc(C(=O)N(C)C)cc2c(=O)cc(N3CCOCC3)oc12` (centres unmarked) [Compound 31, 8-(1-((3,5-difluorophenyl)amino)propyl)-N,N-dimethyl-2-morpholino-4-oxo-4H-chromene-6-carboxamide], the inhibition at 0.5 µM is, setting by setting: under setting [1], above 90%; under setting [2], above 90%.

Take `CN(C)C(=O)c1cc(CN2CCc3cccc(Cl)c32)c2oc(N3CCOCC3)cc(=O)c2c1` [Compound 36, 8-((7-chloroindolin-1-yl)methyl)-N,N-dimethyl-2-morpholino-4-oxo-4H-chromene-6-carboxamide]: the inhibition at 0.5 µM is above 90% under setting [1] and above 90% under setting [2].

In the case of `CC(c1cc(C(=O)N(C)C)cc2c(=O)cc(N3CCOCC3)oc12)N1CCc2c(F)cc(F)cc21` (centres unmarked) [Compound 37, 8-(1-(4,6-difluoroindolin-1-yl)ethyl)-N,N-dimethyl-2-morpholino-4-oxo-4H-chromene-6-carboxamide], the inhibition at 0.5 µM is, setting by setting: under setting [1], 80 to 90%; under setting [2], 80 to 90%.

As to `CN(C)CCN(C)C(=O)c1cc(CN2CCc3c(F)cc(F)cc32)c2oc(N3CCOCC3)cc(=O)c2c1` [Compound 40, 8-((4,6-difluoroindolin-1-yl)methyl)-N-(2-(dimethylamino)ethyl)-N-methyl-2-morpholino-4-oxo-4H-chromene-6-carboxamide], the inhibition at 0.5 µM under setting [1] is above 90% and the inhibition at 0.5 µM under setting [2] is above 90%.

For the molecule `O=C(c1cc(CN2CCc3c(F)cc(F)cc32)c2oc(N3CCOCC3)cc(=O)c2c1)N1CCOCC1` [Compound 41, 8-((4,6-difluoroindolin-1-yl)methyl)-6-(morpholine-4-carbonyl)-2-morpholino-4H-chromen-4-one], the inhibition at 0.5 µM is, setting by setting: under setting [1], 80 to 90%; under setting [2], 80 to 90%.
